Assay results: patent US11186588B2 (AYUMI PHARMACEUTICAL CORPORATION, priority 2017, dated 2021)

Key:
IL-6 production = test: LPS-induced IL-6 production model test; assay type: in vivo, C57BL/6J mice; conditions: Mus musculus, 1 h; 10 mg/kg oral, 30 min before LPS 1 mg/kg i.p., serum IL-6 60 min after LPS, mice
Method: In order to evaluate the inhibitory activity of inflammatory cytokine production in the present compounds, LPS-induced IL-6 production model evaluation was carried out. The specific method is described below.
An appropriate amount of each compound was weighed, triturated with an agate mortar, and suspended or dissolved in 1% methyl cellulose solution to prepare 1 mg/mL solution.
C57BL/6J mice (male, Purchaser: Charles River Laboratories Japan, Inc.) were weighted, before divided into normal group, control group and each compound-administered group based on the measured body weight using a random number, wherein each group contained 6 samples. The mice were manually held in hands and forced orally administered the 1% methyl cellulose solution (normal and control group) or each administration solution comprising the compound (each compound-administered group) at a dose of 10 mL/kg into stomach using a feeding needle. After 30 minutes from administration of the 1% methyl cellulose solution or each compound administration solution, the mice were manually held in hands and intraperitoneally administered physiological saline (normal group) or LPS solution (control and each compound-administered group) at a dose of 1 mg/kg. After 60 minutes from administration of the LPS solution, whole blood was collected from the abdominal vena cava of each mouse under isoflurane inhalation anesthesia (available from Mylan Seiyaku Ltd.), and the mice were euthanized. The collected blood was allowed to stand at room temperature for one hour, and then centrifuged at 1,500 G for 10 minutes to collect a serum (supernatant). The collected serum was stored in a deep freezer set at −80° C. until the measurement of IL-6 in the serum. The IL-6 concentration in the serum of each mouse was measured by a commercially available kit (available from R&D systems, Cat No. M6000B), according to the protocol attached thereto.
The IL-6 production inhibition rate (%) was calculated by the following equation using Microsoft EXCEL 2010. IL-6 production inhibition rate (%)=100−{(average value of IL-6 concentration in serum of each compound-administered group)−(average value of IL-6 concentration in serum of normal group))/(average value of IL-6 concentration in serum of control group)−(average value of IL-6 concentration in serum of normal group)}×100

NF-κB = NF-κB reporter gene assay (TNF-α stimulated A549/NF-κB-luc cells); assay type: cell-based; conditions: Homo sapiens, TNF-α stimulation
Outline: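 A549 cells stably carrying an NF-κB luciferase reporter were preincubated with compound for 1 h, then stimulated with TNF-α for 3 h. Luminescence was read with Steady-Glo, and inhibition was scaled between blank and DMSO control wells. IC50 was obtained by curve fitting.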

[1] = biological target: Recombinant BRD4 (44-168) protein (Homo sapiens (Human), UniProt O60885); test: BRD4-H4KAc4 binding assay (amplified luminescence proximity homogeneous assay, AlphaScreen); conditions: 10 uM
Outline: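 His/FLAG-tagged BRD4 (44-168) and biotinylated tetra-acetylated H4 peptide, each added as 250 nM solutions, incubated with compound 60 min at room temperature in the dark, then AlphaScreen beads 60 min. Emission 520-620 nm at 680 nm excitation, duplicates; % inhibition from blank- and DMSO-corrected signal.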

Row | IC50 (NF-κB) [nM] | inhibition at 10 µM [1] [%] | Compound | inhibition in vivo at 10 mg/kg (IL-6 production) [%]
1 | 1110 | 100 | Cc1sc2c(c1C)C(c1ccc(Cl)cc1)=NN(Cc1cccnc1[N+](=O)[O-])c1nnc(C)n1-2 [Example 80, 4-(4-chlorophenyl)-2,3,9-trimethyl-6-((2-nitropyridin-3-yl)methyl)-6H-thieno[2,3-e][1,2,4]triazolo[3,4-c][1,2,4]triazepine] | 
2 | 47.2 | 100 | Cc1sc2c(c1C)C(c1ccc(Cl)cc1)=NN(Cc1cccnc1N)c1nnc(C)n1-2 [Example 81, 3-((4-(4-chlorophenyl)-2,3,9-trimethyl-6H-thieno[2,3-e][1,2,4]triazolo[3,4-c][1,2,4]triazepin-6-yl)methyl)pyridin-2-amine] | 
3 | 135 | 100 | CC(=O)Nc1ncccc1CN1N=C(c2ccc(Cl)cc2)c2c(sc(C)c2C)-n2c(C)nnc21 [Example 82, N-(3-((4-(4-chlorophenyl)-2,3,9-trimethyl-6H-thieno[2,3-e][1,2,4]triazolo[3,4-c][1,2,4]triazepin-6-yl)methyl)pyridin-2-yl)acetamide] | 
4 | 2820 | 100 | COC(=O)c1ncccc1CN1N=C(c2ccc(Cl)cc2)c2c(sc(C)c2C)-n2c(C)nnc21 [Example 83, methyl 3-((4-(4-chlorophenyl)-2,3,9-trimethyl-6H-thieno[2,3-e][1,2,4]triazolo[3,4-c][1,2,4]triazepin-6-yl)methyl)picolinate] | 
5 | 95.3 | 100 | Cc1sc2c(c1C)C(c1ccc(Cl)cc1)=NN(Cc1cccnc1CO)c1nnc(C)n1-2 [Example 86, (3-((4-(4-chlorophenyl)-2,3,9-trimethyl-6H-thieno[2,3-e][1,2,4]triazolo[3,4-c][1,2,4]triazepin-6-yl)methyl)pyridin-2-yl)methanol] | 
6 | 1390 | 100 | CCOc1ncccc1CN1N=C(c2ccc(Cl)cc2)c2c(sc(C)c2C)-n2c(C)nnc21 [Example 87, 4-(4-chlorophenyl)-6-((2-ethoxypyridin-3-yl)methyl)-2,3,9-trimethyl-6H-thieno[2,3-e][1,2,4]triazolo[3,4-c][1,2,4]triazepine] | 
7 | 631 | 100 | Cc1sc2c(c1C)C(c1ccc(Cl)cc1)=NN(Cc1cc(F)cnc1F)c1nnc(C)n1-2 [Example 88, 4-(4-chlorophenyl)-6-((2,5-difluoropyridin-3-yl)methyl)-2,3,9-trimethyl-6H-thieno[2,3-e][1,2,4]triazolo[3,4-c][1,2,4]triazepine] | 
8 | 556 | 100 | COc1ncc(F)cc1CN1N=C(c2ccc(Cl)cc2)c2c(sc(C)c2C)-n2c(C)nnc21 [Example 89, 4-(4-chlorophenyl)-6-((5-fluoro-2-methoxypyridin-3-yl)methyl)-2,3,9-trimethyl-6H-thieno[2,3-e][1,2,4]triazolo[3,4-c][1,2,4]triazepine] | 
9 | 298 | 100 | Cc1sc2c(c1C)C(c1ccccc1)=NN(Cc1cccnc1F)c1nnc(C)n1-2 [Example 90, 6-((2-fluoropyridin-3-yl)methyl)-2,3,9-trimethyl-4-phenyl-6H-thieno[2,3-e][1,2,4]triazolo[3,4-c][1,2,4]triazepine] | 
10 | 34.2 |  | Cc1sc2c(c1C)C(c1ccc(N)cc1)=NN(Cc1cccnc1)c1nnc(C)n1-2 [Example 92, 4-(2,3,9-trimethyl-6-(pyridin-3-ylmethyl)-6H-thieno[2,3-e][1,2,4]triazolo[3,4-c][1,2,4]triazepin-4-yl)aniline] | 71
11 | 96 |  | CC(=O)Nc1ccc(C2=NNc3nnc(C)n3-c3sc(C)c(C)c32)cc1 [Example 94, N-(4-(2,3,9-trimethyl-6H-thieno[2,3-e][1,2,4]triazolo[3,4-c][1,2,4]triazepin-4-yl)phenyl)acetamide] | 45.7

The remaining lines, values behind:

Row | Compound | IC50 (NF-κB) [nM] | inhibition at 10 µM [1] [%] | inhibition in vivo at 10 mg/kg (IL-6 production) [%]
12 | COc1ncccc1CN1N=C(c2ccc(Cl)cc2)c2c(sc(C)c2C)-n2c(C)nnc21 [Example 49, 4-(4-chlorophenyl)-6-((2-methoxypyridin-3-yl)methyl)-2,3,9-trimethyl-6H-thieno[2,3-e][1,2,4]triazolo[3,4-c][1,2,4]triazepine] | 197 | 100 | 17.9
13 | Cc1nnc2n1-c1sccc1C(c1ccc(Cl)cc1)=NN2Cc1ccccc1 [Example 60, 6-benzyl-4-(4-chlorophenyl)-9-methyl-6H-thieno[2,3-e][1,2,4]triazolo[3,4-c][1,2,4]triaz epine] | 1690 | 100 | 
14 | Cc1nnc2n1-c1sccc1C(c1ccc(Cl)cc1)=NN2Cc1cccnc1 [Example 61, 4-(4-chlorophenyl)-9-methyl-6-(pyridin-3-ylmethyl)-6H-thieno[2,3-e][1,2,4]triazolo[3,4-c][1,2,4]triazepine] | 377 | 100 | 
15 | Cc1nnc2n1-c1sccc1C(c1ccc(Cl)cc1)=NN2Cc1ccncc1 [Example 63, 4-(4-chlorophenyl)-9-methyl-6-(pyridin-4-ylmethyl)-6H-thieno[2,3-e][1,2,4]triazolo[3,4-c][1,2,4]triazepine] | 5240 | 100 | 
16 | COc1cccc(CN2N=C(c3ccc(Cl)cc3)c3ccsc3-n3c(C)nnc32)c1 [Example 64, 4-(4-chlorophenyl)-6-(3-methoxybenzyl)-9-methyl-6H-thieno[2,3-e][1,2,4]triazolo[3,4-c][1,2,4]triazepine] | 5490 | 100 | 
17 | COc1ccc(CN2N=C(c3ccc(Cl)cc3)c3cc(C)sc3-n3c(C)nnc32)cc1 [Example 65, 4-(4-chlorophenyl)-6-(4-methoxybenzyl)-2,9-dimethyl-6H-thieno[2,3-e][1,2,4]triazolo[3,4-c][1,2,4]triazepine] | 896 | 100 | 
18 | Cc1sc2c(c1C)C(c1ccc([N+](=O)[O-])cc1)=NN(Cc1cccnc1)c1nnc(C)n1-2 [Example 70, 2,3,9-trimethyl-4-(4-nitrophenyl)-6-(pyridin-3-ylmethyl)-6H-thieno[2,3-e][1,2,4]triazolo[3,4-c][1,2,4]triazepine] | 1830 | 100 | 
19 | Cc1sc2c(c1C)C(c1cccc(Cl)c1)=NN(Cc1cccnc1)c1nnc(C)n1-2 [Example 73, 4-(3-chlorophenyl)-2,3,9-trimethyl-6-(pyridin-3-ylmethyl)-6H-thieno[2,3-e][1,2,4]triazolo[3,4-c][1,2,4]triazepine] | 246 | 100 | 
20 | COc1ccccc1C1=NN(Cc2cccnc2)c2nnc(C)n2-c2sc(C)c(C)c21 [Example 74, 4-(2-methoxyphenyl)-2,3,9-trimethyl-6-(pyridin-3-ylmethyl)-6H-thieno[2,3-e][1,2,4]triazolo[3,4-c][1,2,4]triazepine] | 2140 | 100 | 
21 | COc1cccc(C2=NN(Cc3cccnc3)c3nnc(C)n3-c3sc(C)c(C)c32)c1 [Example 75, 4-(3-methoxyphenyl)-2,3,9-trimethyl-6-(pyridin-3-ylmethyl)-6H-thieno[2,3-e][1,2,4]triazolo[3,4-c][1,2,4]triazepine] | 1930 | 100 | 
22 | Cc1sc2c(c1C)C(c1ccc(Cl)cc1)=NN(Cc1cccnc1C#N)c1nnc(C)n1-2 [Example 77, 3-((4-(4-chlorophenyl)-2,3,9-trimethyl-6H-thieno[2,3-e][1,2,4]triazolo[3,4-c][1,2,4]triazepin-6-yl)methyl)picolinonitrile] | 1950 | 100 | 
23 | Cc1sc2c(c1C)C(c1ccc(Cl)cc1)=NN(Cc1cccnc1C(F)(F)F)c1nnc(C)n1-2 [Example 78, 4-(4-chlorophenyl)-2,3,9-trimethyl-6-((2-(trifluoromethyl)pyridin-3-yl)methyl)-6H-thieno[2,3-e][1,2,4]triazolo[3,4-c][1,2,4]triazepine] | 1260 | 100 | 
24 | Cc1sc2c(c1C)C(c1ccc(Cl)cc1)=NN(Cc1cccnc1Br)c1nnc(C)n1-2 [Example 79, 6-((2-bromopyridin-3-yl)methyl)-4-(4-chlorophenyl)-2,3,9-trimethyl-6H-thieno[2,3-e][1,2,4]triazolo[3,4-c][1,2,4]triazepine] | 742 | 100 | 
